According to US10662159B2, “ABHD6 and dual ABHD6/MGL inhibitors and their uses” (MAKScientific, LLC, priority 2017, dated 2020):

Legend:
Type in all cases: biochemical
Rat ΔTM FAAH = Rat ΔTM FAAH (Rattus norvegicus (Rat), UniProt P97612); assay: Fluorescent assay for rat ΔTM FAAH (AAMCA substrate); details: ΔTM rFAAH, AAMCA 20 μM; read-out: rFAAH Inhibition IC50
Description: (§1) Certain compounds were tested for their ABHD6 and dual ABHD6/MGL inhibitory activity, which is expressed as % of inhibition or IC50 values in Table 1. The percentage of inhibition describes the percentage by which the inhibitor reduces the velocity/rate of 2-AG hydrolysis by ABHD6, and MGL or AEA hydrolysis by FAAH. The IC50 is the concentration of the inhibitor, which results in 50% inhibition of the velocity/rate of 2-AG hydrolysis by ABHD6 or MGL. The IC50 is the concentration of the inhibitor, which results in 50% inhibition of the velocity/rate of AEA hydrolysis by FAAH. The lower the IC50 values, the higher its inhibitory activity. A detailed description of the methods used to test inhibitory activity of compounds is given below.
Example 79. Preparation of Transmembrane Domain-Deleted Rat FAAH (ΔTM rFAAH)
Rat ΔTM FAAH was expressed in E. coli cells and purified using the procedure disclosed by Patricelli et al. Biochemistry (1998) 37: 15177-15187.
Example 81. Fluorescent Assay Protocol for Rat ΔTM FAAH
(§2) The fluorescence reading at the 3 hour time point (linear enzyme kinetics) was used to calculate percent inhibition based on control assays without inhibitor present. All FAAH assays were performed in triplicate for each inhibitor concentration, and IC50 values determined using Prizm software (GraphPad Software, Inc.).

hMGL = hMGL (Homo sapiens (Human), UniProt Q99685); assay: Fluorescent assay for hMGL (AHMMCE substrate hydrolysis); details: E. coli lysate containing hMGL, read-out: hMGL Inhibition IC50
Sequence of hMGL (Q99685 whole entry): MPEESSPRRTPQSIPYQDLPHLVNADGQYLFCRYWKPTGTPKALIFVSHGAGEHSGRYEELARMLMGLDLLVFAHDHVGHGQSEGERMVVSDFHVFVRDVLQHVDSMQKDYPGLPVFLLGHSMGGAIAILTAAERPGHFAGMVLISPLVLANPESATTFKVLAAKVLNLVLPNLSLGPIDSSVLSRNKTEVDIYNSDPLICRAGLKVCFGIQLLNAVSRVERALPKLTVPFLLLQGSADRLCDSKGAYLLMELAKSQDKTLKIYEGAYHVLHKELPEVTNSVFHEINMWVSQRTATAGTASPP
Description: (§3) Certain compounds were tested for their ABHD6 and dual ABHD6/MGL inhibitory activity, which is expressed as % of inhibition or IC50 values in Table 1. The percentage of inhibition describes the percentage by which the inhibitor reduces the velocity/rate of 2-AG hydrolysis by ABHD6, and MGL or AEA hydrolysis by FAAH. […] The lower the IC50 values, the higher its inhibitory activity. A detailed description of the methods used to test inhibitory activity of compounds is given below.
Preparation of Human MAGL (hMAGL)
Fluorescent Assay Protocol for hMGL
This medium throughput assay involved a 96-well plate format in which hMGL activity was monitored by the hydrolysis of the substrate […] (AHMMCE) to form the fluorescent product, coumarin. […] Upon the addition of AHMMCE, the reaction was incubated at 25° C. for 120 min; fluorescence readings were taken every 15 min at 360 nm/460 nm (λexcitation/λemission) using a Synergy HT Plate Reader (Bio-Tek, Winooski, Vt.). […] External standards were used to convert relative fluorescence units to the amount of 4-methylcoumarin formed. All MGL assays were performed in triplicate for each inhibitor concentration, and IC50 values were calculated using Prizm software (GraphPad Software, Inc., San Diego, Calif.).

hFAAH = hFAAH (Homo sapiens (Human), UniProt O00519); assay: Fluorescent assay for hFAAH; details: MBP ΔTM hFAAH, procedure as for rFAAH; read-out: hFAAH Inhibition IC50
Sequence of hFAAH (O00519 30-579): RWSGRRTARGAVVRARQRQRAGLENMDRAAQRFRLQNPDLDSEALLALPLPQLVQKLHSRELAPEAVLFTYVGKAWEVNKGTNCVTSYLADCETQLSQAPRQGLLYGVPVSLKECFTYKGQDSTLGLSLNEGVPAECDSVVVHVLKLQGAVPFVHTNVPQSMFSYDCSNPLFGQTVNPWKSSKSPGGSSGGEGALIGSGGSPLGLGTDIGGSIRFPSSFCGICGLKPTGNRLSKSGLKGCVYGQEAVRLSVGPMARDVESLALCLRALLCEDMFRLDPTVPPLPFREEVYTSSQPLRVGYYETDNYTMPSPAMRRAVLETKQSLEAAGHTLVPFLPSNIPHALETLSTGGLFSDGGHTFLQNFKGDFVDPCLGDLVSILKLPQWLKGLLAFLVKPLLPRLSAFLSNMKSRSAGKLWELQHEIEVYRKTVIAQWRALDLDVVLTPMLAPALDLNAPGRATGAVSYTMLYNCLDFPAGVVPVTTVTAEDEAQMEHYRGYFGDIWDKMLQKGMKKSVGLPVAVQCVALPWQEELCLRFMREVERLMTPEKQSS
Description: as §1
Example 80. Preparation of Human FAAH in Fusion with N-Terminal Maltose Binding Tag (MBP ΔTM hFAAH)
Human FAAH without putative transmembrane domain following maltose binding protein was expressed in E. coli cells using pMALcE4 vector Alapafuja et al J. Med. Chem. (2012) 55: 10074-89.
as §2
Example 82. Fluorescent Assay Protocol for hFAAH
Procedure was followed as described for rFAAH.

hABHD6 = hABHD6 (Homo sapiens (Human), UniProt Q9BV23); assay: Fluorescent assay for hABHD6 (AHMMCE substrate hydrolysis); details: membrane fraction containing full-length hABHD6, 20 μM AHMMCE; read-out: ABHD6 Inhibition IC50
Sequence of hABHD6 (Q9BV23 whole entry): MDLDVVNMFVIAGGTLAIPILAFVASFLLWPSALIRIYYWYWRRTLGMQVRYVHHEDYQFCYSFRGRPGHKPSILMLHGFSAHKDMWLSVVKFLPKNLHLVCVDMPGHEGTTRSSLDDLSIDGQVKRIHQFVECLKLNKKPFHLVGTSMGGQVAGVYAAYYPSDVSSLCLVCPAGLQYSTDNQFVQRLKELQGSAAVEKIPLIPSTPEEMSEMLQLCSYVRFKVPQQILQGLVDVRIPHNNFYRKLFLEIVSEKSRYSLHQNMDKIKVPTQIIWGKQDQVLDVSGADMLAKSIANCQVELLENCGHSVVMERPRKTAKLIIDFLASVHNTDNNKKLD
Description: as §3
Fluorescent Assays Protocol for hABHD6
Initial Fluorescent Inhibition Assay (3-Point)—
In each well of a 96-well plate 8 μL of membrane fraction containing full-length hABHD6 (1 μg total protein) was mixed with 168 μL of assay buffer (50 mM Tris-HCl, pH 7.6), and 20 μL of diluted compound (diluted in a dilution buffer consisting of 50% DMSO/50% assay buffer v/v). Each plate was incubated at RT for 15 minutes before adding 4 μL of 1 mM AHMMCE substrate (final concentration of 20 μM AHMMCE and final volume of 200 μL). The reaction was allowed to proceed for 1 hr at RT before the fluorescence was read at λex 360 nm and λem 460 nm and the inhibition calculated. Each experiment can test 8 compounds at three concentrations (usually 10 μM, 1 μM, and 100 nM).
IC50 Determination Assay (8-Point)—
A more detailed assay with an extended range tests compounds over 8 concentrations depending on the pre-determined approximate IC50 value from the initial screen. […] The assay was conducted in 96 well plate with each well containing the same reaction mixture detailed above in the 3-point screen. The relative fluorescence is quantified into coumarin produced by using a standard curve of HMMC in triplicate on each plate. Results are normalized to the negative control wells and the IC50 is determined using a non-linear regression curve fit in Prism, version 5 (GraphPad, San Diego, Calif.).

Sequence of Rat ΔTM FAAH (P97612 30-579): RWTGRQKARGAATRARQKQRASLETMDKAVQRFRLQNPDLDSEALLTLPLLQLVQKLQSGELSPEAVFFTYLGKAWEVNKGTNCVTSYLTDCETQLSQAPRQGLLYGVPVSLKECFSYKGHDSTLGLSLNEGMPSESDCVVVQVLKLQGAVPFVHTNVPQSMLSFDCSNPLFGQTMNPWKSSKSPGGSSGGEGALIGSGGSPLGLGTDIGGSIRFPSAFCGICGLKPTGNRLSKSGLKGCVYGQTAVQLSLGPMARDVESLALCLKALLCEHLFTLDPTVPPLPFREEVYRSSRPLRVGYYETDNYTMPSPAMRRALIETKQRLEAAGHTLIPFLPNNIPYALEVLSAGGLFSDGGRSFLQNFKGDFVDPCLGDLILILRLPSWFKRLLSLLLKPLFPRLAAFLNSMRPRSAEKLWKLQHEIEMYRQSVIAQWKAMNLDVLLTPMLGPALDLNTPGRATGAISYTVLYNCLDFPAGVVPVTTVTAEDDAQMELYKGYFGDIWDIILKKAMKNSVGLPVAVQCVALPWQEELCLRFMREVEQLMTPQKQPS

SMILES | IC50 (Rat ΔTM FAAH) | IC50 (hMGL) | IC50 (hFAAH) | IC50 (hABHD6)
O=C(OC(C(F)(F)F)C(F)(F)F)N1CCc2cccc(-c3ccccc3)c2C1 [Example 27, 1,1,1,3,3,3-Hexafluoropropan-2-yl 8-phenyl-3,4-dihydroisoquinoline-2(1H)-carboxylate] | > 1 µM | > 1 µM | > 1 µM | > 1 µM
O=C(OC(C(F)(F)F)C(F)(F)F)N1Cc2ccc(OCC(F)F)cc2C1 [Example 45, 1,1,1,3,3,3-Hexafluoropropan-2-yl 5-(2,2-difluoroethoxy)isoindoline-2-carboxylate] | > 1 µM | 0.01 to 0.1 µM | > 1 µM | 0.01 to 0.1 µM
O=C(OC(C(F)(F)F)C(F)(F)F)N1CC2(CC(Oc3cccc(C(F)(F)F)c3)C2)C1 [Example 52, 1,1,1,3,3,3-Hexafluoropropan-2-yl 6-(3-(trifluoromethyl)phenoxy)-2-azaspiro [3.3]heptane-2-carboxylate] | > 1 µM | 0.01 to 0.1 µM | > 1 µM | 0.01 to 0.1 µM
O=C(OC(C(F)(F)F)C(F)(F)F)N1CC2(CC(Oc3cccc(F)c3)C2)C1 [Example 53, 1,1,1,3,3,3-Hexafluoropropan-2-yl-6-(3-fluorophenoxy)-2-azaspiro[3.3]heptane-2-carboxylate] | > 1 µM | 0.01 to 0.1 µM | > 1 µM | 0.01 to 0.1 µM
O=C(OC(C(F)(F)F)C(F)(F)F)N1CC2(CC(Oc3cncc(F)c3)C2)C1 [Example 60, 1,1,1,3,3,3-Hexafluoropropan-2-yl 6-((5-fluoropyridin-3-yl)oxy)-2-azaspiro[3.3]heptane-2-carboxylate] | > 1 µM | > 1 µM | > 1 µM | 0.01 to 0.1 µM
CC1(C)C2C(=O)N(OC(=O)N3CC4(CC(Oc5cccc(C(F)(F)F)c5)C4)C3)C(=O)C21 (stereo not drawn) [Example 63, 6,6-Dimethyl-2,4-dioxo-3-azabicyclo[3.1.0]hexan-3-yl 6-(3-(trifluoromethyl)phenoxy)-2-azaspiro[3.3]heptane-2-carboxylate] | > 1 µM | > 1 µM | > 1 µM | 0.01 to 0.1 µM

Second part, the molecule after the results:

IC50 (Rat ΔTM FAAH) | IC50 (hMGL) | IC50 (hFAAH) | IC50 (hABHD6) | SMILES
> 1 µM | > 1 µM | > 1 µM | 0.01 to 0.1 µM | CC1(C)C2C(=O)N(OC(=O)N3CC4(CCC(Oc5cncc(F)c5)C4)C3)C(=O)C21 (stereo not drawn) [Example 64, 6,6-Dimethyl-2,4-dioxo-3-azabicyclo[3.1.0]hexan-3-yl 6-((5-fluoropyridin-3-yl)oxy)-2-azaspiro[3.4]octane-2-carboxylate]
0.01 to 0.1 µM | 0.01 to 0.1 µM | > 1 µM | 0.01 to 0.1 µM | O=C(OC(C(F)(F)F)C(F)(F)F)N1CC[C@]2(C1)C[C@@H](OC(c1ccc(F)cc1)c1ccc(F)cc1)C2 [Example 67, 1,1,1,3,3,3-Hexafluoropropan-2-yl (2r,4s)-2-(bis(4-fluorophenyl)methoxy)-6-azaspiro[3.4]octane-6-carboxylate]
0.01 to 0.1 µM | 0.01 to 0.1 µM | > 1 µM | > 1 µM | O=C(OC(C(F)(F)F)C(F)(F)F)N1CC[C@]2(C1)C[C@H](OC(c1ccc(F)cc1)c1ccc(F)cc1)C2 [Example 68, 1,1,1,3,3,3-Hexafluoropropan-2-yl (2s,4r)-2-(bis(4-fluorophenyl)methoxy)-6-azaspiro[3.4]octane-6-carboxylate]
